# From patent US11591341B2 (ALIGOS THERAPEUTICS, INC., priority 2019, dated 2023)
# Test system: HBV
# Assay: HBV-DNA Antiviral Assay Using HepG2.117 Cells (intracellular HBV DNA by qPCR)
# Format: cell-based, hepatitis B virus (genotype D)
# Details: Hepatitis B virus, HepG2.117
# In short: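 Endpoint: qPCR copy number of intracellular HBV DNA after 3-day compound exposure, with inhibition set relative to the 2% DMSO control. The cells were doxycycline-free HepG2.117 carrying a Tet-off genotype D genome, dosed at nine 4-fold dilutions. A duplicate plate gave ATP-based viability (CC50).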
row,Structure (SMILES),EC50
1,"C[C@H](NC(=O)c1c2n(c(=O)n1-c1ccc(-n3cccn3)cc1)CCN(C(=O)c1ccc(Br)c(Cl)c1)C2)c1ccccc1F (stereo in doubt) [Example 409, 7-(4-bromo-3-chloro-benzoyl)-3-oxo-2-(4-pyrazol-1-ylphenyl)-N-[rac-(1S)-1-(2-fluorophenyl)ethyl]-6,8-dihydro-5H-imidazo[1,5-a]pyrazine-1-carboxamide]",500 to 5000 nM
2,COc1ccc(CNC(=O)c2c3n(c(=O)n2-c2ccc(OCC(F)(F)F)cc2)CCN(C(=O)c2ccc(Br)c(Cl)c2)C3)c(OC(F)F)c1 [Example 266],100 to 500 nM
3,"O=C(NCc1ccccc1)c1c2n(c(=O)n1-c1ccc3cn[nH]c3c1)CCN(C(=O)c1ccc(Br)c(Cl)c1)C2 [Example 408, N-benzyl-7-(4-bromo-3-chloro-benzoyl)-2-(1H-indazol-6-yl)-3-oxo-6,8-dihydro-5H-imidazo[1,5-a]pyrazine-1-carboxamide]",100 to 500 nM
4,"NS(=O)(=O)c1cccc(-n2c(C(=O)NCc3ccccc3)c3n(c2=O)CCN(C(=O)c2ccc(Br)c(Cl)c2)C3)c1 [Example 47, N-benzyl-7-(4-bromo-3-chloro-benzoyl)-3-oxo-2-(3-sulfamoylphenyl)-6,8-dihydro-5H-imidazo[1,5-a]pyrazine-1-carboxamide]",> 5000 nM
5,"COc1ccc(CNC(=O)c2c3n(c(=O)n2-c2ccc(OC(C)C)cc2)CCN(C(=O)c2ccc(Br)c(Cl)c2)C3)cc1 [Example 185, 7-(4-bromo-3-chloro-benzoyl)-2-(4-isopropoxyphenyl)-N-[(4-methoxyphenyl)methyl]-3-oxo-6,8-dihydro-5H-imidazo[1,5-a]pyrazine-1-carboxamide]",100 to 500 nM
6,"C[C@@H](NC(=O)c1c2n(c(=O)n1-c1ccc(OC3CC3)cc1)C[C@H](C)N(C(=O)c1ccc(Br)c(Cl)c1)C2)c1ccccc1F (mixture of isomers) [Example 322, (6SR)-7-(4-bromo-3-chloro-benzoyl)-2-[4-(cyclopropoxy)phenyl]-N-[(1R)-1-(2-fluorophenyl)ethyl]-6-methyl-3-oxo-6,8-dihydro-5H-imidazo[1,5-a]pyrazine-1-carboxamide]",100 to 500 nM
7,"COc1ccc(-n2c(C(=O)NCc3ccc(CC(=O)O)cc3)c3n(c2=O)CCN(C(=O)c2ccc(Br)c(Cl)c2)C3)cc1 [Example 215, 2-[4-[[[7-(4-bromo-3-chloro-benzoyl)-2-(4-methoxyphenyl)-3-oxo-6,8-dihydro-5H-imidazo[1,5-a]pyrazine-1-carbonyl]amino]methyl]phenyl]acetic acid]",> 5000 nM
8,"O=C(NCc1ccccc1-c1ncccn1)c1c2n(c(=O)n1-c1ccc(OC3CC3)cc1)CCN(C(=O)c1ccc(Br)c(Cl)c1)C2 [Example 376, 7-(4-bromo-3-chloro-benzoyl)-2-[4-(cyclopropoxy)phenyl]-3-oxo-N-[(2-pyrimidin-2-ylphenyl)methyl]-6,8-dihydro-5H-imidazo[1,5-a]pyrazine-1-carboxamide]",< 100 nM
9,"COc1ccc(-n2c(C(=O)NCc3ccccc3)c3n(c2=O)CC(C)N(C(=O)c2ccc(Br)c(Cl)c2)C3)cc1 (racemic) [Example 198, rac-(6R)-N-benzyl-7-(4-bromo-3-chloro-benzoyl)-2-(4-methoxyphenyl)-6-methyl-3-oxo-6,8-dihydro-5H-imidazo[1,5-a]pyrazine-1-carboxamide]",500 to 5000 nM
10,"O=C(NCc1ccccc1)c1c2n(c(=O)n1-c1ccc(N3CCC3)cc1)CCN(C(=O)c1ccc(Br)c(Cl)c1)C2 [Example 390, 2-[4-(azetidin-1-yl)phenyl]-N-benzyl-7-(4-bromo-3-chloro-benzoyl)-3-oxo-6,8-dihydro-5H-imidazo[1,5-a]pyrazine-1-carboxamide]",100 to 500 nM
11,"CC(C)Oc1ccc(-n2c(C(=O)NCc3ccccc3C(N)=O)c3n(c2=O)CCN(C(=O)c2ccc(Br)c(Cl)c2)C3)cc1 [Example 222, 7-(4-bromo-3-chloro-benozyl)-N-[(2-carbamoylphenyl)methyl]-2-(4-isopropoxyphenyl)-3-oxo-6,8-dihydro-5H-imidazo[1,5-a]pyrazine-1-carboxamide]",> 5000 nM
12,"C[C@@H](NC(=O)c1c2n(c(=O)n1-c1ccc(OC3CCC3)cc1)CCN(C(=O)c1ccc(Br)c(Cl)c1)C2)c1ccccc1 (stereo in doubt) [Example 137, 7-(4-bromo-3-chloro-benzoyl)-2-[4-(cyclobutoxy)phenyl]-3-oxo-N-[rac-(1R)-1-phenylethyl]-6,8-dihydro-5H-imidazo[1,5-a]pyrazine-1-carboxamide]",100 to 500 nM
13,"C[C@H]1Cn2c(c(C(=O)NCc3ccccc3-c3ncccn3)n(-c3ccc(OC4CC4)cc3)c2=O)CN1C(=O)c1ccc(Br)c(C#N)c1 (racemic) [Example 452, rac-(6S)-7-(4-bromo-3-cyano-benzoyl)-2-[4-(cyclopropoxy)phenyl]-6-methyl-3-oxo-N-[(2-pyrimidin-2-ylphenyl)methyl]-6,8-dihydro-5H-imidazo[1,5-a]pyrazine-1-carboxamide]",< 100 nM
14,"C[C@@H](Oc1ccc([C@@H](C)NC(=O)c2c3n(c(=O)n2-c2ccc(OC4CC4)cc2)CCN(C(=O)c2ccc(Br)c(Cl)c2)C3)c(F)c1)C(N)=O (stereo in doubt) [Example 355, 7-(4-bromo-3-chloro-benzoyl)-2-[4-(cyclopropoxy)phenyl]-3-oxo-N-[rac-(1R)-1-[2-fluoro-4-[rac-(1R)-2-amino-1-methyl-2-oxo-ethoxy]phenyl]ethyl]-6,8-dihydro-5H-imidazo[1,5-a]pyrazine-1-carboxamide]",500 to 5000 nM
15,"O=C(c1ccc(Br)c(Cl)c1)N1CCn2c(c3n(c2=O)CCCN(CC2CC2)C3=O)C1 [Example 133, 4-(4-bromo-3-chloro-benzoyl)-13-(cyclopropylmethyl)-4,7,9,13-tetrazatricyclo[7.5.0.0^2,7]tetradec-1-ene-8.14-dione]",> 5000 nM
16,"CNc1ccc(-n2c(C(=O)NCc3ccccc3)c3n(c2=O)CCN(C(=O)c2ccc(Br)c(Cl)c2)C3)cc1 [Example 311, N-benzyl-7-(4-bromo-3-chloro-benzoyl)-2-[4-(methylamino)phenyl]-3-oxo-6,8-dihydro-5H-imidazo[1,5-a]pyrazine-1-carboxamide]",100 to 500 nM
17,"COc1ccc(-n2c(C(=O)NCc3ccccc3)c3n(c2=O)CCN(C(=O)c2ccc(Cl)c(Cl)c2)C3)c(Cl)c1 [Example 59, N-benzyl-2-(2-chloro-4-methoxy-phenyl)-7-(3,4-dichlorobenzoyl)-3-oxo-6,8-dihydro-5H-imidazo[1,5-a]pyrazine-1-carboxamide]",500 to 5000 nM
18,"O=C1CCc2cc(-n3c(C(=O)NCc4ccccc4)c4n(c3=O)CCN(C(=O)c3ccc(Br)c(Cl)c3)C4)ccc2N1 [Example 403, N-benzyl-7-(4-bromo-3-chloro-benzoyl)-3-oxo-2-(2-oxo-3,4-dihydro-1H-quinolin-6-yl)-6,8-dihydro-5H-imidazo[1,5-a]pyrazine-1-carboxamide]",500 to 5000 nM
19,"CC(NC(=O)c1c2n(c(=O)n1-c1ccc(OC3CC3)cc1)CCN(C(=O)c1ccc(Br)c(Cl)c1)C2)c1ccc(OC(F)F)cc1F (racemic) [Example 314, 7-(4-bromo-3-chloro-benzoyl)-2-[4-(cyclopropoxy)phenyl]-3-oxo-N-[rac-(1S)-1-[4-(difluoromethoxy)-2-fluoro-phenyl]ethyl]-6,8-dihydro-5H-imidazo[1,5-a]pyrazine-1-carboxamide]",100 to 500 nM
20,"COc1ccc(-n2c(C(=O)NCc3ccc(F)cc3)c3n(c2=O)CCN(C(=O)c2ccc(Br)c(Cl)c2)C3)cc1 [Example 60, 7-(4-bromo-3-chloro-benzoyl)-N-[(4-fluorophenyl)methyl]-2-(4-methoxyphenyl)-3-oxo-6,8-dihydro-5H-imidazo[1,5-a]pyrazine-1-carboxamide]",100 to 500 nM
21,"C[C@@H](NC(=O)c1c2n(c(=O)n1-c1ccc(OCC(F)(F)F)cc1)CCN(C(=O)c1ccc(Br)c(Cl)c1)C2)c1ccc(OC(F)(F)F)cc1F (racemic) [Example 292, 7-(4-bromo-3-chloro-benzoyl)-3-oxo-N-[rac-(1R)-1-[2-fluoro-4-(trifluoromethoxy)phenyl]ethyl]-2-[4-(2,2,2-trifluoroethoxy)phenyl]-6,8-dihydro-5H-imidazo[1,5-a]pyrazine-1-carboxamide]",500 to 5000 nM
22,"CC(C)Oc1ccc(-n2c(C(=O)NCc3ccccc3)c3n(c2=O)CCN(C(c2ccc(Br)c(Cl)c2)C(F)(F)F)C3)cc1 (racemic) [Example 241, N-benzyl-2-(4-isopropoxyphenyl)-3-oxo-7-[rac-(1S)-1-(4-bromo-3-chloro-phenyl)-2,2,2-trifluoro-ethyl]-6,8-dihydro-5H-imidazo[1,5-a]pyrazine-1-carboxamide]",> 5000 nM
23,"COc1ccc(CNC(=O)c2c3n(c(=O)n2-c2ccc(OCC(F)(F)F)cc2)CCN(C(=O)c2ccc(Br)c(Cl)c2)C3)c(F)c1 [Example 244, 7-(4-bromo-3-chloro-benzoyl)-N-[(2-fluoro-4-methoxy-phenyl)methyl]-3-oxo-2-[4-(2,2,2-trifluoroethoxy)phenyl]-6,8-dihydro-5H-imidazo[1,5-a]pyrazine-1-carboxamide]",100 to 500 nM
24,"Cc1cc(-n2c(C(=O)NCc3ccccc3)c3n(c2=O)CCN(C(=O)c2ccc(Br)c(Cl)c2)C3)ccc1C#N [Example 257, N-benzyl-7-(4-bromo-3-chloro-benzoyl)-2-(4-cyano-3-methyl-phenyl)-3-oxo-6,8-dihydro-5H-imidazo[1,5-a]pyrazine-1-carboxamide]",500 to 5000 nM
25,"CC(C)Oc1ccc(-n2c(C(=O)NCc3ccc4occc4c3)c3n(c2=O)CCN(C(=O)c2ccc(Br)c(Cl)c2)C3)cc1 [Example 220, N-(benzofuran-5-ylmethyl)-7-(4-bromo-3-chloro-benzoyl)-2-(4-isopropoxyphenyl)-3-oxo-6,8-dihydro-5H-imidazo[1,5-a]pyrazine-1-carboxamide]",> 5000 nM
26,"O=C(c1ccc(Br)c(Cl)c1)N1CCn2c(c3n(c2=O)C[C@@H](CO)CN(Cc2ccccc2)C3=O)C1 (stereo in doubt) [Example 147, rac-(11S)-13-benzyl-4-(4-bromo-3-chloro-benzoyl)-11-(hydroxymethyl)-4,7,9,13-tetrazatricyclo[7.5.0.0^2,7]tetradec-1-ene-8,14-dione]",100 to 500 nM
